Laboratory results reported in paper PMC7162492, “Pharmacological and pharmacokinetic profile of the novel ocular hypotensive prodrug CKLP1 in Dutch-belted pigmented rabbits” (PLoS ONE, 2020).
“And” between values parts separate entries of the source, which are not always exact repeats. Equal entries are not always repeated. “Also recorded” adds a separate entry of the source.

Assays:
[1] = Plasma pharmacokinetics after single intravenous injection of CKLP1 (LC-MS/MS); format: in vivo, Dutch-belted pigmented rabbits; settings: rabbit, intravenous 0.25 mg/kg CKLP1
Method: (§1) LC-MS/MS analysis of all fluids were performed using a Waters (Milford, MA) Acquity UPLC BEH C18 column (1.7 μm, 2.1 x 50 mm) with an Agilent EC-C18 pre-column (2.7 μm, 2.1 x 5 mm) and a gradient elution program containing ultra-pure water and acetonitrile with 2.5 mM ammonium formate, at a flow rate of 0.2 ml/min. Flavopiridol was used as an internal standard. The column and auto-sampler temperatures were maintained at 40°C and 4°C, respectively. Source parameters were capillary voltage, 2.6 kV; source temperature, 150°C; desolvation temperature, 500°C; cone gas flow, 150 L/h; and desolvation gas flow, 800 L/h. The cone voltages and collision energies for CKLP1, levcromakalim and flavopiridol were determined by MassLynx-Intellistart software, v4.1, and were 32, 34 and 72 V (cone) and 20, 14 and 30 eV (collision), respectively. The retention times were 4.5 minutes for CKLP1, 5.9 minutes for levcromakalim and 5.7 minutes for flavopiridol.
(§2) To validate accurate measurement of CKLP1 and levcromakalim, known concentrations of CKLP1 (5, 10, 25, 50, 100, 250, 500 ng/ml) and levcromakalim (1, 5, 10, 25, 50, 100, 250 ng/ml) were added to human plasma (obtained from the Mayo Clinic Division of Transfusion Medicine under an Institutional Review Board approved protocol) to make calibration curves. Quality control was determined for each run by using known quantities of CKLP1 and levcromakalim to verify that the instrument recorded values consistent with the established standard curve. The effect of carryover was evaluated by injecting blank samples before and after running the standard samples for calibration curves. Unknown samples with signal to noise ratios >10 were recorded as acceptable concentrations. Samples with signal to noise ratios <10 were reported as not detectable (ND). Controls consisted of a double blank (without analytes and internal standard) and a single blank (only internal standard). The linearity of the calibration curves was determined by plotting the ratios of analytes to internal standard peak areas. The curve was fitted by least squares regression with a 1/x weighting for both CKLP1 and levcromakalim. Data was collected from 3–6.4 minutes for CKLP1 and 4–8 minutes for both levcromakalim and flavopiridol. Waters MassLynx Intellistart software v4.1 was used for analysis.
(§3) All experiments with animals were pre-approved by the Institutional Animal Care and Use Committee of the Mayo Clinic, Rochester, MN and adhered to the recommendations in the Guide for the Care and use of Laboratory Animals of the National Institutes of Health, and the tenets of the ARVO Statement for the Use of Animals in Vision Research. Female Dutch-belted pigmented rabbits (age 7 months) were obtained from Covance Research Products, Inc. (Denver, PA). Rabbits were housed in pairs and kept in a climate controlled room with 12 h light and dark cycles. Animals had unrestrained access to water and standard rabbit food pellets at all times. Upon receipt, animals were acclimated for at least 5 days before initiation of the experiment. IOP was measured with a handheld rebound tonometer (Icare Tonovet, Colonial Medical Supply, Franconia, NH, USA) in conscious and minimally restrained, non-anesthetized rabbits as previously described. Briefly, daily IOP was calculated from the average of 3 independent IOP measurements at 3 different time points each day. These time points corresponded to 1 h, 4 h and 23 h post treatment on any given day. Rabbits that needed to be handled for IOP were subjected to sham IOP measurements for two days prior to initiation of experiment. Rabbits (n = 3) were injected intravenously through the right ear vein with CKLP1 as a bolus dose equal to 0.25 mg/kg body weight. Additional rabbits were treated topically through instillation of 50 μl eye drops of a 10 mM (4.1 mg/ml) solution of CKLP1 in sterile PBS. […]

[2] = Concentration in aqueous and vitreous humor after topical CKLP1 for 1, 4 or 8 days (LC-MS/MS); format: in vivo, Dutch-belted pigmented rabbits; settings: topical CKLP1 both eyes, days 1, 4 and 8, collected after the 24 h blood sample
Method: as §1, §2, §3

[3] = Tissue and fluid distribution after 90 days of daily topical CKLP1 (LC-MS/MS); format: in vivo, Dutch-belted pigmented rabbits; settings: topical eye drops 10 mM CKLP1, 90 consecutive days
Method: as §1, §2, §3

[4] = system: Dutch-belted pigmented rabbits; assay: Histology of tissues at necropsy after 90 days of topical CKLP1; format: in vivo; settings: topical CKLP1 once daily, masked veterinary pathologist
From the text: as §3, with “day.” for “day. These time points corresponded to 1 h, 4 h and 23 h post treatment on any given day. Rabbits that needed to be handled for IOP were subjected to sham IOP measurements for two days prior to initiation of experiment. Rabbits (n = 3) were injected intravenously through the right ear vein with CKLP1 as a bolus dose equal to 0.25 mg/kg body weight. Additional rabbits were treated topically through instillation of 50 μl eye drops of a 10 mM (4.1 mg/ml) solution of CKLP1 in sterile PBS.”
To assess cell and tissue morphology following CKLP1 treatment for 90 days, necropsy was performed on all 6 treated rabbits. Representative hematoxylin and eosin stained sections from 34 tissues were isolated, processed and assessed in a masked manner by a certified veterinary pathologist. […]

[5] = system: Dutch-belted pigmented rabbits; assay: Tolerability observation during topical CKLP1 treatment for 1, 4 or 8 days; format: in vivo; settings: topical CKLP1 both eyes for 1, 4 or 8 days
From the text: as §3, with “experiment.” for “experiment. Rabbits (n = 3) were injected intravenously through the right ear vein with CKLP1 as a bolus dose equal to 0.25 mg/kg body weight. Additional rabbits were treated topically through instillation of 50 μl eye drops of a 10 mM (4.1 mg/ml) solution of CKLP1 in sterile PBS.”

phosphatases = assay: In vitro cleavage of CKLP1 by phosphatases (unpublished data); format: in vitro ADME
[6] = design: method as in earlier work; settings: ref Roy Chowdhury U, Viker KB, Stoltz KL, et al. J Med Chem. 2016;59(13):6221-31; cited from earlier work

sodium [CKLP1, sodium [(3S,4R)-6-cyano-2,2-dimethyl-4-(2-oxopyrrolidin-1-yl)-chroman-3-yl phosphate]]
AUClast [1]: 2164.0 ± 482.5 ng·h/mL
Clast [1]: 34.9 ± 42.4 ng/mL
Cmax [1]: 1968.5 ± 831.0 ng/mL
Tlast [1]: 5.6 ± 1.8 h
Tmax [1]: 19.8 ± 23.0 min
half-life [1]: 61.8 ± 55.2 min
Concentration in aqueous humor [2]: No CKLP1 was detected; also recorded: below detectable limits
Concentration in vitreous humor [2]: No CKLP1 was detected; also recorded: below detectable limits
Concentration in Brain [3]: not detected
Concentration in Heart [3]: not detected
Concentration in Kidney [3]: 15.8 ±1.8 ng/g and 15.8 ± 1.8 (n = 6/6) ng/g
Concentration in Muscle [3]: not detected
Concentration in Plasma [3]: no detectable levels
Concentration in aqueous humor [3]: undetectable
Concentration in vitreous humor [3]: undetectable
Histological changes in tissues [4]: No observable histological changes; also recorded: did not show any observable histological changes; also recorded: No observable differences in histology
Tolerability, visible signs of toxicity or discomfort [5]: no visible signs of toxicity or discomfort
Cleavage by phosphatases to cromakalim in vitro (phosphatases): never completely cleaved
Solubility in water [6]: water soluble
